Reference: the supplement of paper PMC5908809

What was measured:
[1] = test system: normal NK cells expanded with K562-aAPC; assay: percent inhibition of viability; higher = more inhibition; settings: 72 h, IL-2 2.5 ng/mL
Procedure: (§1)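 Drug sensitivity and resistance testing on K562-aAPC-expanded normal NK cells: 5 concentrations (10-fold steps over a 10,000-fold range), 72 h at 37 °C, viability by CellTiter-Glo normalised to DMSO and benzethonium chloride controls; DSS from the fitted curve.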

DERL-7 (IL-2 2.5 ng/mL) [2] = assay: as above; settings: 72 h
IMC-1 (IL-2 20 ng/mL) [3] = assay: as above; settings: 72 h
KAI3 (IL-2 2.5 ng/mL) [4] = assay: as above; settings: 72 h
KHYG-1 (IL-2 2.5 ng/mL) [5] = assay: as above; settings: 72 h
NK-92 (IL-2 2.5 ng/mL) [6] = assay: as above; settings: 72 h
NK-YS (IL-2 2.5 ng/mL) [7] = assay: as above; settings: 72 h
NKL (IL-2 2.5 ng/mL) [8] = assay: as above; settings: 72 h
SNK-6 (IL-2 2.5 ng/mL) [9] = assay: as above; settings: 72 h
YT (IL-2 2.5 ng/mL) [10] = assay: as above; settings: 72 h
[11] = test system: normal primary NK cells, pool 1 (3 donors) (IL-2 2.5 ng/mL); assay: as above; settings: 72 h
[12] = test system: normal primary NK cells, pool 1 (3 donors), resting (IL-2 0 ng/mL); assay: as above; settings: 72 h
[13] = test system: normal primary NK cells, pool 2 (3 donors) (IL-2 2.5 ng/mL); assay: as above; settings: 72 h
[14] = test system: normal primary NK cells, pool 3 (3 donors) (IL-2 2.5 ng/mL); assay: as above; settings: 72 h
[15] = test system: normal NK cells expanded with K562-aAPC; assay: drug sensitivity score (DSS) (DSS units); higher = more sensitive; extreme values may be limits of the assay; settings: 72 h; IL-2 2.5 ng/mL
Procedure: as §1

DERL-7 (IL-2 2.5 ng/mL) [16] = assay: as above; settings: 72 h
IMC-1 (IL-2 20 ng/mL) [17] = assay: as above; settings: 72 h
KAI3 (IL-2 2.5 ng/mL) [18] = assay: as above; settings: 72 h
KHYG-1 (IL-2 2.5 ng/mL) [19] = assay: as above; settings: 72 h
NK-92 (IL-2 2.5 ng/mL) [20] = assay: as above; settings: 72 h
NK-YS (IL-2 2.5 ng/mL) [21] = assay: as above; settings: 72 h
NKL (IL-2 2.5 ng/mL) [22] = assay: as above; settings: 72 h
SNK-6 (IL-2 2.5 ng/mL) [23] = assay: as above; settings: 72 h
YT (IL-2 2.5 ng/mL) [24] = assay: as above; settings: 72 h
[25] = test system: normal primary NK cells, pool 1 (3 donors) (IL-2 2.5 ng/mL); assay: as above; settings: 72 h
[26] = test system: normal primary NK cells, pool 1 (3 donors), resting (IL-2 0 ng/mL); assay: as above; settings: 72 h
[27] = test system: normal primary NK cells, pool 2 (3 donors) (IL-2 2.5 ng/mL); assay: as above; settings: 72 h
[28] = test system: normal primary NK cells, pool 3 (3 donors) (IL-2 2.5 ng/mL); assay: as above; settings: 72 h

Cn1c(=O)n(-c2ccc(C(C)(C)C#N)cc2)c2c3cc(-c4cnc5ccccc5c4)ccc3ncc21 [Dactolisib] (max concentration tested 1000 nM)
percent inhibition of viability [%]
Settings	0.1 nM	1 nM	10 nM	100 nM	1000 nM
DERL-7 (IL-2 2.5 ng/mL) [2]	0.52	16	38.7	79.4	84.9
IMC-1 (IL-2 20 ng/mL) [3]	-8.09	0.4	-15.1	8.63	56.9
KAI3 (IL-2 2.5 ng/mL) [4]	-4.23	-6.61	24.4	68.8	75.8
KHYG-1 (IL-2 2.5 ng/mL) [5]	-4.3	-5.69	3.3	74.9	90.8
NK-92 (IL-2 2.5 ng/mL) [6]	-5.17	-0.09	27.1	63.9	70.8
NK-YS (IL-2 2.5 ng/mL) [7]	0.2	-0.12	24.7	63.3	82.3
NKL (IL-2 2.5 ng/mL) [8]	-13.1	-9.35	36.5	69.7	76.1
SNK-6 (IL-2 2.5 ng/mL) [9]	-7.98	-26.8	2.13	46.8	52.4
YT (IL-2 2.5 ng/mL) [10]	-3.01	-5.11	15.7	57.6	80.4
[1]	-4.3	-1.75	17.1	38.2	57.6
[11]	-5.56	16	21.4	45	38.5
[12]	-1.73	24	24.7	38.7	40.6
[13]	-5.46	9.09	17.1	37.6	57.4
[14]	-3.41	6.19	15.4	16.5	43.5

Settings	drug sensitivity score
DERL-7 (IL-2 2.5 ng/mL) [16]	19.6
IMC-1 (IL-2 20 ng/mL) [17]	4.51
KAI3 (IL-2 2.5 ng/mL) [18]	15.9
KHYG-1 (IL-2 2.5 ng/mL) [19]	14.2
NK-92 (IL-2 2.5 ng/mL) [20]	15.2
NK-YS (IL-2 2.5 ng/mL) [21]	14.8
NKL (IL-2 2.5 ng/mL) [22]	18.6
SNK-6 (IL-2 2.5 ng/mL) [23]	8.78
YT (IL-2 2.5 ng/mL) [24]	12.7
[15]	8.96
[25]	10.6
[26]	11.8
[27]	9.12
[28]	4.8

Nc1nc(Nc2ccc3c(c2)CC[C@@H](N2CCCC2)CC3)nn1-c1cc2c(nn1)-c1ccccc1CCC2 [BGB324] (max concentration tested 10000 nM)
percent inhibition of viability [%]
Settings	1 nM	10 nM	100 nM	1000 nM	10000 nM
DERL-7 (IL-2 2.5 ng/mL) [2]	1.87	-0.37	13.9	68	101
IMC-1 (IL-2 20 ng/mL) [3]	-1.43	-0.15	0.68	-4.19	99.9
KAI3 (IL-2 2.5 ng/mL) [4]	-3.31	-2.86	2.2	43.9	101
KHYG-1 (IL-2 2.5 ng/mL) [5]	-2.69	-1.76	3.04	59	103
NK-92 (IL-2 2.5 ng/mL) [6]	-4.37	-8.81	-0.92	49	102
NK-YS (IL-2 2.5 ng/mL) [7]	-2.01	-2.03	0.13	14.3	101
NKL (IL-2 2.5 ng/mL) [8]	6.99	-6.74	6.47	73.7	102
SNK-6 (IL-2 2.5 ng/mL) [9]	12.8	12.3	-18.1	34.5	99.7
YT (IL-2 2.5 ng/mL) [10]	-0.88	-5.6	-1.23	11	101
[1]	-3.36	-11.5	-1.93	21.5	99.9
[11]	-3.33	-4.6	-5.97	66.2	99.8
[12]	7.14	3.63	5.02	83.6	99.8
[13]	-7.98	-0.57	-5.73	45.8	100
[14]	-9.08	-10.5	-10.5	23.1	99.8

Settings	drug sensitivity score
DERL-7 (IL-2 2.5 ng/mL) [16]	14.7
IMC-1 (IL-2 20 ng/mL) [17]	5.23
KAI3 (IL-2 2.5 ng/mL) [18]	11.2
KHYG-1 (IL-2 2.5 ng/mL) [19]	12.5
NK-92 (IL-2 2.5 ng/mL) [20]	11.6
NK-YS (IL-2 2.5 ng/mL) [21]	7.94
NKL (IL-2 2.5 ng/mL) [22]	14.8
SNK-6 (IL-2 2.5 ng/mL) [23]	10.3
YT (IL-2 2.5 ng/mL) [24]	7.38
[15]	8.94
[25]	13.2
[26]	16
[27]	11.3
[28]	9.12
